From US20240271213A1, “METHODS AND COMPOSITIONS COMPRISING FUNCTIONAL GENOMICS OF HIBERNATING MAMMALS” (Fauna Bio Incorporated, priority 2021, published 2024)

Legend:
AC16 cells [1] = experiment: Ischemia-reperfusion assay in AC16 cells, cell viability; assay type: cell-based, human; conditions: 16 hours ischemia, 4 hours reperfusion, compound added prior to ischemia
Protocol: FIG. 18A is a graph showing in vitro cell viability of AC16 cells following 16 hrs ischemia and 4 hrs reperfusion and incubated with different concentrations of a compound identified for neuroprotection, Triptolide.
(§1) For ischemia-reperfusion assays, de-oxygenated serum free medium was prepared by adding 1% penicillin-streptomycin into glucose-free DMEM; the medium was contacted for 5 mins with 5% CO2 and 95% N2; and the medium was then warmed in a 37° C. bath. Cells were then washed with warm PBS to completely remove normal culture medium. PBS was aspirated and deoxygenated serum free medium was added into plates (100 μl was added for each well of 96-well plate). To mimic myocardial ischemia, cells in the experiment plate were subjected to ischemia by culturing them in glucose and serum free-medium and hypoxic conditions (5% CO2 and 95% N2). Plates were placed in a hypoxia chamber and air-tight lock; the chamber was filled with 5% CO2 and 95% N2 until oxygen level is 0%, and then the chamber was placed in the incubator for a duration of ischemia time. […] Cell viability was determined by MTT assay The control cells were considered to be 100% viable; changes in viability in the experiment plates were measured relative to the control. […]

AC16 cells [2] = experiment: Ischemia-reperfusion assay in AC16 cells, cell damage (LDH activity); assay type: cell-based, human; conditions: 16 hours ischemia, 4 hours reperfusion, compound added prior to ischemia
Protocol: FIG. 18B is a graph showing a decrease in cell damage response (LDH activity) of AC16 cells following 16 hrs ischemia and 4 hrs reperfusion and incubated with different concentrations of Triptolide.
as §1, with “time. The duration of ischemia was 21 hours for H9C2 cells; 29 hours for differentiated SH-SY5Y cells; 16 hours for AC16 cells; and 16 hours for native SH-SY5Y cells.” for “time.”

AC16 cells [3] = experiment: Reactive oxygen species (ROS) production in AC16 cells; assay type: cell-based, human; conditions: AC16 cells following incubation with compound
H9C2 cells = experiment: Ischemia-reperfusion assay in H9C2 cells, viability by MTT; assay type: cell-based, rat; conditions: melatonin added at start of ischemia, control wells ~75% viable, normoxic control = 100%
Protocol: FIG. 17 is a graph illustrating results of an in vitro validation assay for ischemia-reperfusion injury in H9C2 cells. H9C2 cells were exposed to ischemia for […] and reperfusion for 4 hrs were contacted with differing concentrations of melatonin at the start of ischemia. Viability was measured using the MTT assay. Data are expressed as the mean +/− standard deviation in experiments performed in triplicate. * p<0.05 and ** […] compared to vehicle control.
as §1, with “N2).” for “N2). Plates were placed in a hypoxia chamber and air-tight lock; the chamber was filled with 5% CO2 and 95% N2 until oxygen level is 0%, and then the chamber was placed in the incubator for a duration of ischemia time.”

SH-SY5Y cells = experiment: Aβ1-42 induced toxicity in SH-SY5Y cells, viability by MTT; assay type: cell-based, human; conditions: Aβ1-42 peptide added, vs vehicle control
Excerpt: Alzheimer's disease progression features the accumulation of two protein aggregates: β-amyloid (Aβ) and tau; these play crucial roles in neuronal loss or dysfunction in Alzheimer's disease. To mimic pathogenesis of Alzheimer's disease, we used in vitro cell models that focus on Aβ-induced toxicity and tau hyperphosphorylation. SH-SY5Y human neuroblastoma cells (American Type Culture Collection; ATCC) were purchased and grown in appropriate culture medium. First, OE/KD and WT SH-SY5Y cells were equally seeded in wells of 96-well plates. Human SH-SY5Y neuroblastoma cells were successfully differentiated into mature neurons by incubating cells in retinoic acid and N2 supplement for 9 days (FIG. 16). These can be distinguished from the original SH-SY5Y cells, which are prone to grow in clusters and extend short neurites at edges of the clusters. […] Aβ-induced toxicity was examined by adding Aβ1-42 peptide to both WT and OE/KD cells. Aβ1-42 induced cell death in WT cells. […] To validate potential neuroprotective compounds identified by the integrated gene networks described above, in vitro assays were conducted with SH-SY5Y cells. Aβ-induced toxicity was examined by adding Aβ1-42 peptide to cells treated with vehicle control or test compounds (FIG. 19). […] Tau hyperphosphorylation was also examined, by exposing the SH-SY5Y cells to hypothermic conditions (30° C.).

CC(C)[C@]12O[C@H]1[C@@H]1O[C@]13[C@]1(O[C@H]1C[C@H]1C4=C(CC[C@@]13C)C(=O)OC4)[C@@H]2O [Triptolide]
cell viability after ischemia-reperfusion (AC16 cells [1]): increased cell viability | cell damage (LDH activity) after ischemia-reperfusion (AC16 cells [2]): reduced cell damage | production of reactive oxygen species (ROS) (AC16 cells [3]): decrease production of reactive oxygen species (ROS)

COc1ccc2[nH]cc(CCNC(C)=O)c2c1 [melatonin]
viable cells after ischemia-reperfusion (MTT) (H9C2 cells): ~90%

CC12CC3CC(C)(C1)CC(N)(C3)C2 [Memantine]
cell viability under Aβ1-42 toxicity (MTT) (SH-SY5Y cells): increase in cell viability
